Data on three compounds can be found in ChEMBL document CHEMBL3774313, “Natural product-based design, synthesis and biological evaluation of Albiziabioside A derivatives that selectively induce HCT116 cell death” (Eur J Med Chem, 2016).

Assay [1] can be described thus: Cytotoxicity against mouse J774A1 cells assessed as cell viability after 72 hrs by MTT assay. It is filed as functional, cell-based. The note with it: J774.A1, 72 h.
Assay [2] in a line: Cell cycle arrest in human HCT116 cells assessed as accumulation at S phase at 4 uM after 72 hrs by Propidium iodide staining-based flow cytometric analysis (reference value: 37.29 %). In kind it is functional. Conditions: HCT-116.
A short description of assay [3]: Cell cycle arrest in human HCT116 cells assessed as accumulation at G1 phase at 2 uM after 72 hrs by Propidium iodide staining-based flow cytometric analysis (reference value: 57.02 %). It is filed as functional. Conditions: HCT-116.
In another assay the test system is HepG2. Nature of the assay: Antiproliferative activity against human HepG2 cells assessed as cell viability after 72 hrs by MTT assay. In kind it is functional, cell-based. Conditions: HepG2, 72 h.
A short description of assay [4]: Antiproliferative activity against human HCT116 cells assessed as cell viability after 72 hrs by MTT assay. Conditions: HCT-116, 72 h. In kind it is functional, cell-based.
Assay [5] concerns HCT-116. Nature of the assay: Induction of apoptosis in human HCT116 cells assessed as early apoptotic cells at 4 uM after 72 hrs by Annexin V/Propidium iodide staining based flow cytometric analysis (reference value: 5.07 %). In kind it is functional. A general note: In flow cytometry, cells or beads pass a laser one at a time.
Assay [6] can be described thus: Antiproliferative activity against human HL60 cells assessed as cell viability after 72 hrs by MTT assay. In kind it is functional, cell-based. The note with it: HL-60, 72 h. A general note: Formazan colour is commonly taken as a measure of viable cells.
A short description of assay [7]: Cytotoxicity against human LO2 cells assessed as cell viability after 72 hrs by MTT assay. It is filed as cell-based. Conditions: L02, 72 h.
Assay [8] concerns HCT-116. Nature of the assay: Induction of apoptosis in human HCT116 cells assessed as mitochondrial membrane potential at 8 uM after 72 hrs by JC-1 staining based flow cytometric analysis (reference value: 98.02 %). It is filed as functional.
In assay [9] the test system is HCT-116. Nature of the assay: Induction of apoptosis in human HCT116 cells assessed as mitochondrial membrane potential at 2 uM after 72 hrs by JC-1 staining based flow cytometric analysis (reference value: 98.02 %). In kind it is functional.
In assay [10] the test system is HCT-116. Nature of the assay: Induction of apoptosis in human HCT116 cells assessed as late apoptotic cells at 8 uM after 72 hrs by Annexin V/Propidium iodide staining based flow cytometric analysis (reference value: 1.49 %). It is filed as functional.
Assay [11] is described as follows: Cell cycle arrest in human HCT116 cells assessed as accumulation at S phase at 8 uM after 72 hrs by Propidium iodide staining-based flow cytometric analysis (reference value: 37.29 %). The note with it: HCT-116. In kind it is functional.
Assay [12] can be described thus: Cytotoxicity against human HBMEC cells assessed as cell viability after 72 hrs by MTT assay. It is filed as cell-based.
Assay [13] can be described thus: Cell cycle arrest in human HCT116 cells assessed as accumulation at G2 phase at 2 uM after 72 hrs by Propidium iodide staining-based flow cytometric analysis (reference value: 5.69 %). In kind it is functional. The note with it: HCT-116.
The subject of assay [14] is HCT-116. Nature of the assay: Induction of apoptosis in human HCT116 cells assessed as early apoptotic cells at 8 uM after 72 hrs by Annexin V/Propidium iodide staining based flow cytometric analysis (reference value: 5.07 %). It is filed as functional.
Assay [15] has as its system HCT-116. Nature of the assay: Induction of apoptosis in human HCT116 cells assessed as necrotic cells at 2 uM after 72 hrs by Annexin V/Propidium iodide staining based flow cytometric analysis (reference value: 0.97 %). In kind it is functional.
Assay [16] in a line: Cell cycle arrest in human HCT116 cells assessed as accumulation at G1 phase at 4 uM after 72 hrs by Propidium iodide staining-based flow cytometric analysis (reference value: 57.02 %). It is filed as functional. The note with it: HCT-116.
Assay [17] in a line: Cell cycle arrest in human HCT116 cells assessed as accumulation at G1 phase at 8 uM after 72 hrs by Propidium iodide staining-based flow cytometric analysis (reference value: 57.02 %). It is filed as functional. Conditions: HCT-116.
Assay [18] can be described thus: Cell cycle arrest in human HCT116 cells assessed as accumulation at G2 phase at 4 uM after 72 hrs by Propidium iodide staining-based flow cytometric analysis (reference value: 5.69 %). It is filed as functional. The note with it: HCT-116.
The next assay deals with HaCaT. Nature of the assay: Cytotoxicity against human HaCaT cells assessed as cell viability after 72 hrs by MTT assay. It is filed as cell-based.
The nature of assay [19]: Cytotoxicity against human BEAS2B cells assessed as cell viability after 72 hrs by MTT assay. Conditions: BEAS-2B. It is filed as cell-based.
Assay [20] can be described thus: Cell cycle arrest in human HCT116 cells assessed as accumulation at S phase at 2 uM after 72 hrs by Propidium iodide staining-based flow cytometric analysis (reference value: 37.29 %). In kind it is functional. The note with it: HCT-116.
Assay [21] has as its system HCT-116. Nature of the assay: Induction of apoptosis in human HCT116 cells assessed as necrotic cells at 4 uM after 72 hrs by Annexin V/Propidium iodide staining based flow cytometric analysis (reference value: 0.97 %). In kind it is functional.
Assay [22] relates to HCT-116. Nature of the assay: Induction of apoptosis in human HCT116 cells assessed as decrease in mitochondrial membrane potential after 72 hrs by JC-1 staining based flow cytometric analysis. It is filed as functional, cell-based.
Assay [23] has as its system HCT-116. Nature of the assay: Induction of apoptosis in human HCT116 cells assessed as early apoptotic cells at 2 uM after 72 hrs by Annexin V/Propidium iodide staining based flow cytometric analysis (reference value: 5.07 %). In kind it is functional.
In assay [24] the test system is HCT-116. Nature of the assay: Induction of apoptosis in human HCT116 cells assessed as viable cells at 4 uM after 72 hrs by Annexin V/Propidium iodide staining based flow cytometric analysis (reference value: 92.47 %). The note with it: HCT-116, 72 h, read-out: Activity. It is filed as functional.
Assay [25] has as its system HCT-116. Nature of the assay: Induction of apoptosis in human HCT116 cells assessed as necrotic cells at 8 uM after 72 hrs by Annexin V/Propidium iodide staining based flow cytometric analysis (reference value: 0.97 %). It is filed as functional.
For assay [26], the system named is HCT-116. Nature of the assay: Induction of apoptosis in human HCT116 cells assessed as late apoptotic cells at 2 uM after 72 hrs by Annexin V/Propidium iodide staining based flow cytometric analysis (reference value: 1.49 %). In kind it is functional.
A short description of assay [27]: Cytotoxicity against human CCD-841-CoN cells assessed as cell viability after 72 hrs by MTT assay. It is filed as cell-based.
Assay [28] relates to HCT-116. Nature of the assay: Induction of apoptosis in human HCT116 cells assessed as late apoptotic cells at 4 uM after 72 hrs by Annexin V/Propidium iodide staining based flow cytometric analysis (reference value: 1.49 %). In kind it is functional.
Assay [29] concerns HCT-116. Nature of the assay: Induction of apoptosis in human HCT116 cells assessed as viable cells at 8 uM after 72 hrs by Annexin V/Propidium iodide staining based flow cytometric analysis (reference value: 92.47 %). It is filed as functional. Conditions: HCT-116, 72 h, read-out: Activity.
The subject of the next assay is MCF7. Nature of the assay: Antiproliferative activity against human MCF7 cells assessed as cell viability after 72 hrs by MTT assay. It is filed as functional, cell-based. Conditions: MCF7, 72 h.
Assay [30] relates to HCT-116. Nature of the assay: Induction of apoptosis in human HCT116 cells assessed as mitochondrial membrane potential at 4 uM after 72 hrs by JC-1 staining based flow cytometric analysis (reference value: 98.02 %). It is filed as functional.
In another assay the test system is A549. Nature of the assay: Antiproliferative activity against human A549 cells assessed as cell viability after 72 hrs by MTT assay. It is filed as functional, cell-based. The note with it: A549, 72 h.
Another assay deals with HeLa. Nature of the assay: Antiproliferative activity against human HeLa cells assessed as cell viability after 72 hrs by MTT assay. In kind it is functional, cell-based.
Assay [31] has as its system HCT-116. Nature of the assay: Induction of apoptosis in human HCT116 cells assessed as viable cells at 2 uM after 72 hrs by Annexin V/Propidium iodide staining based flow cytometric analysis (reference value: 92.47 %). It is filed as functional. Conditions: HCT-116, 72 h, read-out: Activity.
Assay [32] can be described thus: Cell cycle arrest in human HCT116 cells assessed as accumulation at G2 phase at 8 uM after 72 hrs by Propidium iodide staining-based flow cytometric analysis (reference value: 5.69 %). It is filed as functional. The note with it: HCT-116.

Some results are limits rather than exact numbers.

Take `CC(=O)N[C@H]1[C@H](O[C@H]2CC[C@]3(C)[C@H]4CC=C5[C@@H]6CC(C)(C)CC[C@]6(C(=O)O)CC[C@@]5(C)[C@]4(C)CC[C@H]3C2(C)C)O[C@H](CO)[C@@H](O[C@@H]2O[C@H](CO)[C@@H](O)[C@H](O)[C@H]2O)[C@@H]1O[C@H]1O[C@@H](CO)[C@@H](O)[C@@H](O)[C@@H]1O`: the IC50 in assay [1] was found to be 0.15 µM.

Turning to `CC(=O)N[C@H]1[C@H](O[C@H]2CC[C@]3(C)[C@H]4CC=C5[C@@H]6CC(C)(C)CC[C@]6(C(=O)O)CC[C@@]5(C)[C@]4(C)CC[C@H]3C2(C)C)O[C@H](CO)[C@@H](O)[C@@H]1O[C@@H]1O[C@H](CO)[C@H](O)[C@H](O)[C@H]1O` [LOTOIDOSIDE E], the IC50 in [1] was found to be 0.018 µM.

As to `CC(C)c1ccc(/C=C/C(=O)N[C@H]2[C@H](O[C@H]3CC[C@]4(C)[C@H]5CC=C6[C@@H]7CC(C)(C)CC[C@]7(C(=O)O)CC[C@@]6(C)[C@]5(C)CC[C@H]4C3(C)C)O[C@H](CO[C@@H]3OC[C@H](O)[C@H](O)[C@H]3O)[C@@H](O)[C@@H]2O)cc1`, the Activity in assay [2] is 42.1%; in assay [3] it was 53.8%; with HCT-116 [5], 5.4%; in the assay with HCT-116 [8], 47.79%; in the assay on HCT-116 [9], 86.87%; in the assay on HCT-116 [10] it was 27%. Besides, the Activity came out at 42.8% in assay [11]; 9.86% in assay [13]; 40.8% in the assay with HCT-116 [14]; 1.67% with HCT-116 [15]; 46.5% in [16]; 40.8% in assay [17]. In addition, the Activity in assay [18] is 11.4%; in assay [20] it was 36.4%; in the assay with HCT-116 [21] it was 3.34%; with HCT-116 [22], “Dose-dependent effect”; in the assay with HCT-116 [23], 4.51%; in the assay with HCT-116 [25] it was 3.9%. The Activity worked out at 12.21% with HCT-116 [26], 28% in the assay on HCT-116 [28], 73.55% in the assay on HCT-116 [30] and 16.5% in assay [32]. Moreover, the IC50 with HepG2 was above 50 µM; in assay [4], 7.6 µM; in [6] it was above 50 µM; in assay [7], above 50 µM; in assay [12] it was above 50 µM; with HaCaT, above 50 µM. The IC50 (in [19]; in assay [27]; in the assay on MCF7; in the assay on A549; in the assay on HeLa) was above 50 µM throughout. Besides, the viability at 4 µM with HCT-116 [24] turned out to be 63.3%. For the same compound, the viability at 8 µM in the assay on HCT-116 [29] is 28.3%. Besides, in the assay on HCT-116 [31], the viability at 2 µM worked out at 81.6%.

Broadly, the IC50 is the concentration at which inhibition is half-maximal.
